Experimental data as given in patent US20240025884A1 (Dong-A ST Co., Ltd., priority 2022, published 2024).

Molecular target: GCN2 (Homo sapiens (Human), UniProt Q9P2K8)
Assay: GCN2 Biochemical Assay (TR-FRET, GFP-eIF2S1 substrate phosphorylation)
Conditions: read-out: IC50 (GCN2 Inhibitory Activity)
Method in brief: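 TR-FRET readout (Ex 340, Em 490/520 nm) after 2–3 h with Tb-labelled phospho-eIF2S1 antibody in stop mix, following a 70 min room-temperature kinase step. Reaction: in-house GCN2, GFP-eIF2S1, ATP, tRNA in Tris pH 7.5 (2× stocks 1.6 nM, 50 nM, 0.2 mM); compounds tested at 10 concentrations, with a phospho-substrate artifact counter-plate.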

GCN2, sequence (Q9P2K8 whole entry): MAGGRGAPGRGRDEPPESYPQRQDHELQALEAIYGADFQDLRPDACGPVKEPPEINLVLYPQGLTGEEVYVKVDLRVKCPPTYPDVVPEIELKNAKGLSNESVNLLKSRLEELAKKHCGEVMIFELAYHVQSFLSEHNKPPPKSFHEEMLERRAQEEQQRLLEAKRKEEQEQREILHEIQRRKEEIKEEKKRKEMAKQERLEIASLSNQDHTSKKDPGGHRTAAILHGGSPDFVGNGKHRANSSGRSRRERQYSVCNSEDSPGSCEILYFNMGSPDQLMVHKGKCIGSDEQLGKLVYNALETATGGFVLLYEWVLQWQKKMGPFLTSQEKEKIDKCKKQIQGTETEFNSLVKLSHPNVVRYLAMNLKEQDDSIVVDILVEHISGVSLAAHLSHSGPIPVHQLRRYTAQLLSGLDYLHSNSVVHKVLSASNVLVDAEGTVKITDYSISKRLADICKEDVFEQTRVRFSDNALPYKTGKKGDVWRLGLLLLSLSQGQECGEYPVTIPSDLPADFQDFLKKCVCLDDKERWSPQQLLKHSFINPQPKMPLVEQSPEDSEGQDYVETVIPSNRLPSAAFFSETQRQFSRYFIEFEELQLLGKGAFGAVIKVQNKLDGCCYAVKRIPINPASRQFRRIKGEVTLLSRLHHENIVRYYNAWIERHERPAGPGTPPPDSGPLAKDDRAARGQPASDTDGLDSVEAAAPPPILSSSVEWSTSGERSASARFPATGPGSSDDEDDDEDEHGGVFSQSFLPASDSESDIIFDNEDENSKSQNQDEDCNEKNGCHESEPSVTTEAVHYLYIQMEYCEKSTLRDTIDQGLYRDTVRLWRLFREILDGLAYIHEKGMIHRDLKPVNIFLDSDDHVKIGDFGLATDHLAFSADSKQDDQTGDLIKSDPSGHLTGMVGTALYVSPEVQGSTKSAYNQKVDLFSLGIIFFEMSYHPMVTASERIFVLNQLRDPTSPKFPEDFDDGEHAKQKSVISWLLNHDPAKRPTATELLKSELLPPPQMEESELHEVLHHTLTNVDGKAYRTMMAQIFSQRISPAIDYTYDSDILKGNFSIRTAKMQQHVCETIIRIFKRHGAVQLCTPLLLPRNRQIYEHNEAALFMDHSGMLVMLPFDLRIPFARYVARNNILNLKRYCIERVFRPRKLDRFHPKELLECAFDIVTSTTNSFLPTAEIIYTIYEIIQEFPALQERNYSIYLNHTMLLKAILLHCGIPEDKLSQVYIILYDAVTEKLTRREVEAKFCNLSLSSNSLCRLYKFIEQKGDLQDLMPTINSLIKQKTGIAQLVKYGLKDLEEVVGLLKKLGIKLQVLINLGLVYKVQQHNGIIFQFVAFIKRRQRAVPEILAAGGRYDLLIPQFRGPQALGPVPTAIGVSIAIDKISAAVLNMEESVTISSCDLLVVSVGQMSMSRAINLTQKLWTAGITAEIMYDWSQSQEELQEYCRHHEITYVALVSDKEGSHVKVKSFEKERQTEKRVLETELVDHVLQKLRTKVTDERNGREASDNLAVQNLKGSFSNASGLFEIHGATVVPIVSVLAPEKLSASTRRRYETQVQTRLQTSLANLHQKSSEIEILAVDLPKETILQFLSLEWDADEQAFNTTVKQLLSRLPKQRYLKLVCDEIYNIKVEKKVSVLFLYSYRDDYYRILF

SMILES	IC50
Cc1cnc(Nc2cc(C)n(C)n2)nc1-c1c[nH]c2c(NC(=O)CN3CC[C@H](Oc4nc(N5CCOCC5)ncc4F)C3)cccc12 [Example 232, (S)-N-(3-(2-((1,5-dimethyl-1H-pyrazol-3-yl)amino)-5-methylpyrimidin-4-yl)-1H-indol-7-yl)-2-(3-((5-fluoro-2-morpholinopyrimidin-4-yl)oxy)pyrrolidin-1-yl)acetamide]	< 10 nM
Cc1cnc(Nc2cc(C)n(C)n2)nc1-c1c[nH]c2c(NC(=O)CN3CC[C@H](Oc4nc(N5CCN(C)CC5)ncc4F)C3)cccc12 [Example 233, (S)-N-(3-(2-((1,5-dimethyl-1H-pyrazol-3-yl)amino)-5-methylpyrimidin-4-yl)-1H-indol-7-yl)-2-(3-((5-fluoro-2-(4-methylpiperazin-1-yl)pyrimidin-4-yl)oxy)pyrrolidin-1-yl)acetamide]	< 10 nM
Cc1cnc(Nc2cc(C)n(C)n2)nc1-c1c[nH]c2c(NC(=O)CN3CC[C@H](Oc4cc(F)nc(NC5CC5)n4)C3)cccc12 [Example 234, (S)-2-(3-((2-(cyclopropylamino)-6-fluoropyrimidin-4-yl)oxy)pyrrolidin-1-yl)-N-(3-(2-((1,5-dimethyl-1H-pyrazol-3-yl)amino)-5-methylpyrimidin-4-yl)-1H-indol-7-yl)acetamide]	< 10 nM
Cc1cc(O[C@H]2CCN(CC(=O)Nc3cccc4c(-c5nc(Nc6cc(C)n(C)n6)ncc5C)c[nH]c34)C2)nc(NC2CC2)n1 [Example 236, (S)-2-(3-((2-(cyclopropylamino)-6-methylpyrimidin-4-yl)oxy)pyrrolidin-1-yl)-N-(3-(2-((1,5-dimethyl-1H-pyrazol-3-yl)amino)-5-methylpyrimidin-4-yl)-1H-indol-7-yl)acetamide]	< 10 nM
Cc1cnc(Nc2cc(C)n(C)n2)nc1-c1c[nH]c2c(NC(=O)CN3CC[C@H](Oc4cc(C(F)(F)F)nc(NC5CC5)n4)C3)cccc12 [Example 237, (S)-2-(3-((2-(cyclopropylamino)-6-(trifluoromethyl)pyrimidin-4-yl)oxy)pyrrolidin-1-yl)-N-(3-(2-((1,5-dimethyl-1H-pyrazol-3-yl)amino)-5-methylpyrimidin-4-yl)-1H-indol-7-yl)acetamide]	10 to 100 nM
COc1cc(O[C@H]2CCN(CC(=O)Nc3cccc4c(-c5nc(Nc6cc(C)n(C)n6)ncc5C)c[nH]c34)C2)nc(NC2CC2)n1 [Example 238, (S)-2-(3-((2-(cyclopropylamino)-6-methoxypyrimidin-4-yl)oxy)pyrrolidin-1-yl)-N-(3-(2-((1,5-dimethyl-1H-pyrazol-3-yl)amino)-5-methylpyrimidin-4-yl)-1H-indol-7-yl)acetamide]	< 10 nM
Cc1cnc(Nc2cc(C)n(C)n2)nc1-c1c[nH]c2c(NC(=O)CN3CC[C@H](Oc4cnc(N(C)C)nc4)C3)cccc12 [Example 240, (S)-N-(3-(2-((1,5-dimethyl-1H-pyrazol-3-yl)amino)-5-methylpyrimidin-4-yl)-1H-indol-7-yl)-2-(3-((2-(dimethylamino)pyrimidin-5-yl)oxy)pyrrolidin-1-yl)acetamide]	10 to 100 nM
Cc1cnc(Nc2cc(C)n(C)n2)nc1-c1c[nH]c2c(NC(=O)CN3CC[C@H](Oc4cnc(N5CCOCC5)nc4)C3)cccc12 [Example 241, (S)-N-(3-(2-((1,5-dimethyl-1H-pyrazol-3-yl)amino)-5-methylpyrimidin-4-yl)-1H-indol-7-yl)-2-(3-((2-morpholinopyrimidin-5-yl)oxy)pyrrolidin-1-yl)acetamide]	10 to 100 nM
Cc1cnc(Nc2cc(C)n(C)n2)nc1-c1c[nH]c2c(NC(=O)CN3CC[C@H](Oc4cnc(N5CCN(C)CC5)nc4)C3)cccc12 [Example 242, (S)-N-(3-(2-((1,5-dimethyl-1H-pyrazol-3-yl)amino)-5-methylpyrimidin-4-yl)-1H-indol-7-yl)-2-(3-((2-(4-methylpiperazin-1-yl)pyrimidin-5-yl)oxy)pyrrolidin-1-yl)acetamide]	10 to 100 nM
CCCNc1cncc(O[C@H]2CCN(CC(=O)Nc3cccc4c(-c5nc(Nc6cc(C)n(C)n6)ncc5C)c[nH]c34)C2)n1 [Example 245, (S)-N-(3-(2-((1,5-dimethyl-1H-pyrazol-3-yl)amino)-5-methylpyrimidin-4-yl)-1H-indol-7-yl)-2-(3-((6-(propylamino)pyrazin-2-yl)oxy)pyrrolidin-1-yl)acetamide]	10 to 100 nM

More lines, now with the values ahead:

IC50	SMILES
10 to 100 nM	Cc1cnc(Nc2cc(C)n(C)n2)nc1-c1c[nH]c2c(NC(=O)CN3CC[C@H](Oc4nc(NCC5CC5)ncc4F)C3)cccc12 [Example 229, (S)-2-(3-((2-((cyclopropylmethyl)amino)-5-fluoropyrimidin-4-yl)oxy)pyrrolidin-1-yl)-N-(3-(2-((1,5-dimethyl-1H-pyrazol-3-yl)amino)-5-methylpyrimidin-4-yl)-1H-indol-7-yl)acetamide]
10 to 100 nM	Cc1cnc(Nc2cc(C)n(C)n2)nc1-c1c[nH]c2c(NC(=O)CN3CC[C@H](Oc4nc(NCc5ccccc5)ncc4F)C3)cccc12 [Example 230, (S)-2-(3-((2-(benzylamino)-5-fluoropyrimidin-4-yl)oxy)pyrrolidin-1-yl)-N-(3-(2-((1,5-dimethyl-1H-pyrazol-3-yl)amino)-5-methylpyrimidin-4-yl)-1H-indol-7-yl)acetamide]
10 to 100 nM	Cc1cnc(Nc2cc(C)n(C)n2)nc1-c1c[nH]c2c(NC(=O)CN3CC[C@H](Oc4nc(N(C)C)ncc4F)C3)cccc12 [Example 231, (S)-N-(3-(2-((1,5-dimethyl-1H-pyrazol-3-yl)amino)-5-methylpyrimidin-4-yl)-1H-indol-7-yl)-2-(3-((2-(dimethylamino)-5-fluoropyrimidin-4-yl)oxy)pyrrolidin-1-yl)acetamide]
10 to 100 nM	Cc1cnc(NC2CC2)nc1O[C@H]1CCN(CC(=O)Nc2cccc3c(-c4nc(Nc5cc(C)n(C)n5)ncc4C)c[nH]c23)C1 [Example 235, (S)-2-(3-((2-(cyclopropylamino)-5-methylpyrimidin-4-yl)oxy)pyrrolidin-1-yl)-N-(3-(2-((1,5-dimethyl-1H-pyrazol-3-yl)amino)-5-methylpyrimidin-4-yl)-1H-indol-7-yl)acetamide]
10 to 100 nM	Cc1cnc(Nc2cc(C)n(C)n2)nc1-c1c[nH]c2c(NC(=O)CN3CC[C@H](Oc4cnc(NCCN(C)C)nc4)C3)cccc12 [Example 239, (S)-N-(3-(2-((1,5-dimethyl-1H-pyrazol-3-yl)amino)-5-methylpyrimidin-4-yl)-1H-indol-7-yl)-2-(3-((2-((2-(dimethylamino)ethyl)amino)pyrimidin-5-yl)oxy)pyrrolidin-1-yl)acetamide]
10 to 100 nM	Cc1cnc(Nc2cc(C)n(C)n2)nc1-c1c[nH]c2c(NC(=O)CN3CC[C@H](Oc4cncc(NC5CC5)n4)C3)cccc12 [Example 243, (S)-2-(3-((6-(cyclopropylamino)pyrazin-2-yl)oxy)pyrrolidin-1-yl)-N-(3-(2-((1,5-dimethyl-1H-pyrazol-3-yl)amino)-5-methylpyrimidin-4-yl)-1H-indol-7-yl)acetamide]
10 to 100 nM	CCNc1cncc(O[C@H]2CCN(CC(=O)Nc3cccc4c(-c5nc(Nc6cc(C)n(C)n6)ncc5C)c[nH]c34)C2)n1 [Example 244, (S)-N-(3-(2-((1,5-dimethyl-1H-pyrazol-3-yl)amino)-5-methylpyrimidin-4-yl)-1H-indol-7-yl)-2-(3-((6-(ethylamino)pyrazin-2-yl)oxy)pyrrolidin-1-yl)acetamide]
